Earlier results in PubChem BioAssay AID1259409 (Chemical Carcinogenesis Research Information System (CCRIS), 2018).

Tested on: rodent chemically induced tumor inhibition, incidence and multiplicity
Experiment: CCRIS tumor inhibitor studies
Details: Dose [Inhibitor]: 0, Route [Inhibitor]: ORAL, Species: RAT

CC1=C(CC(=O)O)c2cc(F)ccc2/C1=C\c1ccc(S(C)(=O)=O)cc1
tumour outcome (control, treated, inhibition, significance) (Carcinogen: 1-METHYL-1-NITROSOUREA, 684-93-5, 0.03% IN A PURIFIED HIGH-FAT (24.6%) DIET FOR 37 WK BEGINNING 1 WK POST CARCINOGEN DOSE (STUDY DURATION: 38 WK), Strain/Sex: SPRAGUE-DAWLEY/FEMALE, Target Tissue: Type of Lesion: MAMMARY GLAND: CARCINOMA, Dose [Carcinogen]: 12.5 MG/KG BW ONCE, Promoter: NONE USED): 30%, 12%, 60%, p<0.05 | tumour outcome (control, treated, inhibition, significance) (Carcinogen: 1-METHYL-1-NITROSOUREA, 684-93-5, 0.03% IN DIET FOR DURATION OF STUDY BEGINNING 7 D POST CARCINOGEN DOSE (STUDY DURATION: 24 WK), Strain/Sex: SPRAGUE-DAWLEY/FEMALE, Target Tissue: Type of Lesion: MAMMARY GLAND: ADENOCARCINOMA, Dose [Carcinogen]: 50 MG/KG ONCE, Promoter: NONE USED): 93%, 93%, 0%, not significant | tumour outcome (control, treated, inhibition, significance) (Carcinogen: 1-METHYL-1-NITROSOUREA, 684-93-5, 0.06% IN A PURIFIED HIGH-FAT (24.6%) DIET FOR 37 WK BEGINNING 1 WK POST CARCINOGEN DOSE (STUDY DURATION: 38 WK), Strain/Sex: SPRAGUE-DAWLEY/FEMALE, Target Tissue: Type of Lesion: MAMMARY GLAND: CARCINOMA, Dose [Carcinogen]: 12.5 MG/KG BW ONCE, Promoter: NONE USED): 30%, 16%, 47%, p<0.05 | tumour outcome (control, treated, inhibition, significance) (Carcinogen: 1-METHYL-1-NITROSOUREA, 684-93-5, 0.06% IN DIET FOR DURATION OF STUDY BEGINNING 7 D POST CARCINOGEN DOSE (STUDY DURATION: 24 WK), Strain/Sex: SPRAGUE-DAWLEY/FEMALE, Target Tissue: Type of Lesion: MAMMARY GLAND: ADENOCARCINOMA, Dose [Carcinogen]: 50 MG/KG ONCE, Promoter: NONE USED): 93%, 72%, 23%, p<0.05 | tumour outcome (control, treated, inhibition, significance) (Carcinogen: AZOXYMETHANE, 25843-45-2, 500 PPM IN DIET FOR 29 WK BEGINNING 1 WK POST CARCINOGEN TREATMENT (STUDY DURATION: 32 WK), Strain/Sex: F344/MALE, Target Tissue: Type of Lesion: COLON: ADENOMA, Dose [Carcinogen]: 15 MG/KG BW 1/WK FOR 2 WK, Promoter: NONE USED): 77%, 60%, 22%, not significant | tumour outcome (control, treated, inhibition, significance) (Carcinogen: AZOXYMETHANE, 25843-45-2, 500 PPM IN DIET FOR 29 WK BEGINNING 1 WK POST CARCINOGEN TREATMENT (STUDY DURATION: 32 WK), Strain/Sex: F344/MALE, Target Tissue: Type of Lesion: COLON: CARCINOMA, Dose [Carcinogen]: 15 MG/KG BW 1/WK FOR 2 WK, Promoter: NONE USED): 53%, 63%, -19%, not significant | tumour outcome (control, treated, inhibition, significance) (Carcinogen: AZOXYMETHANE, 25843-45-2, 1000 PPM IN DIET FOR 29 WK BEGINNING 1 WK POST CARCINOGEN TREATMENT (STUDY DURATION: 32 WK), Strain/Sex: F344/MALE, Target Tissue: Type of Lesion: COLON: ADENOMA, Dose [Carcinogen]: 15 MG/KG BW 1/WK FOR 2 WK, Promoter: NONE USED): 77%, 40%, 48%, p<0.05 | tumour outcome (control, treated, inhibition, significance) (Carcinogen: AZOXYMETHANE, 25843-45-2, 1000 PPM IN DIET FOR 29 WK BEGINNING 1 WK POST CARCINOGEN TREATMENT (STUDY DURATION: 32 WK), Strain/Sex: F344/MALE, Target Tissue: Type of Lesion: COLON: CARCINOMA, Dose [Carcinogen]: 15 MG/KG BW 1/WK FOR 2 WK, Promoter: NONE USED): 53%, 37%, 30%, not significant | tumour outcome (control, treated, inhibition, significance) (Carcinogen: AZOXYMETHANE, 25843-45-2, 2000 PPM IN DIET FOR 29 WK BEGINNING 1 WK POST CARCINOGEN TREATMENT (STUDY DURATION: 32 WK), Strain/Sex: F344/MALE, Target Tissue: Type of Lesion: COLON: ADENOMA, Dose [Carcinogen]: 15 MG/KG BW 1/WK FOR 2 WK, Promoter: NONE USED): 77%, 20%, 74%, p<0.05 | tumour outcome (control, treated, inhibition, significance) (Carcinogen: AZOXYMETHANE, 25843-45-2, 2000 PPM IN DIET FOR 29 WK BEGINNING 1 WK POST CARCINOGEN TREATMENT (STUDY DURATION: 32 WK), Strain/Sex: F344/MALE, Target Tissue: Type of Lesion: COLON: CARCINOMA, Dose [Carcinogen]: 15 MG/KG BW 1/WK FOR 2 WK, Promoter: NONE USED): 53%, 10%, 81%, p<0.05 | tumour outcome (control, treated, inhibition, significance) (Carcinogen: N-BUTYL-N-(N-HYDROXYBUTYL)NITROSAMINE [3817-11-6], 600 MG/KG IN DIET FOR 6 MONTHS BEGINNING 1 WK PRIOR TO FIRST CARCINOGEN DOSE (STUDY DURATION: 6 MONTHS), Strain/Sex: F344/FEMALE, Target Tissue: Type of Lesion: URINARY BLADDER: CARCINOMA, Dose [Carcinogen]: 150 MG IN 20% ETHANOL 2X/WK FOR 8 WK (STUDY DURATION: 6 MONTHS), Promoter: NONE): 27%, 30%, -11%, not significant | tumour outcome (control, treated, inhibition, significance) (Carcinogen: N-BUTYL-N-(N-HYDROXYBUTYL)NITROSAMINE [3817-11-6], 600 MG/KG IN DIET FOR 6 MONTHS BEGINNING 1 WK PRIOR TO FIRST CARCINOGEN DOSE (STUDY DURATION: 6 MONTHS), Strain/Sex: F344/FEMALE, Target Tissue: Type of Lesion: URINARY BLADDER: PAPILLOMA, Dose [Carcinogen]: 150 MG IN 20% ETHANOL 2X/WK FOR 8 WK (STUDY DURATION: 6 MONTHS), Promoter: NONE): 60%, 60%, 0%, not significant | tumour outcome (control, treated, inhibition, significance) (Carcinogen: N-BUTYL-N-(N-HYDROXYBUTYL)NITROSAMINE [3817-11-6], 800 MG/KG IN DIET FOR 6 MONTHS BEGINNING 1 WK PRIOR TO FIRST CARCINOGEN DOSE (STUDY DURATION: 6 MONTHS), Strain/Sex: F344/FEMALE, Target Tissue: Type of Lesion: URINARY BLADDER: CARCINOMA, Dose [Carcinogen]: 150 MG IN 20% ETHANOL 2X/WK FOR 8 WK (STUDY DURATION: 6 MONTHS), Promoter: NONE): 27%, 23%, 15%, not significant | tumour outcome (control, treated, inhibition, significance) (Carcinogen: N-BUTYL-N-(N-HYDROXYBUTYL)NITROSAMINE [3817-11-6], 800 MG/KG IN DIET FOR 6 MONTHS BEGINNING 1 WK PRIOR TO FIRST CARCINOGEN DOSE (STUDY DURATION: 6 MONTHS), Strain/Sex: F344/FEMALE, Target Tissue: Type of Lesion: URINARY BLADDER: PAPILLOMA, Dose [Carcinogen]: 150 MG IN 20% ETHANOL 2X/WK FOR 8 WK (STUDY DURATION: 6 MONTHS), Promoter: NONE): 60%, 43%, 28%, not significant | tumour outcome (control, treated, inhibition, significance) (Carcinogen: N-BUTYL-N-(N-HYDROXYBUTYL)NITROSAMINE [3817-11-6], 1000 MG/KG IN DIET FOR 6 MONTHS BEGINNING 1 WK PRIOR TO FIRST CARCINOGEN DOSE (STUDY DURATION: 6 MONTHS), Strain/Sex: F344/FEMALE, Target Tissue: Type of Lesion: URINARY BLADDER: CARCINOMA, Dose [Carcinogen]: 150 MG IN 20% ETHANOL 2X/WK FOR 8 WK (STUDY DURATION: 6 MONTHS), Promoter: NONE): 27%, 14%, 48%, not significant | tumour outcome (control, treated, inhibition, significance) (Carcinogen: N-BUTYL-N-(N-HYDROXYBUTYL)NITROSAMINE [3817-11-6], 1000 MG/KG IN DIET FOR 6 MONTHS BEGINNING 1 WK PRIOR TO FIRST CARCINOGEN DOSE (STUDY DURATION: 6 MONTHS), Strain/Sex: F344/FEMALE, Target Tissue: Type of Lesion: URINARY BLADDER: PAPILLOMA, Dose [Carcinogen]: 150 MG IN 20% ETHANOL 2X/WK FOR 8 WK (STUDY DURATION: 6 MONTHS), Promoter: NONE): 60%, 38%, 37%, not significant | tumour outcome (control, treated, inhibition, significance) (Carcinogen: N-BUTYL-N-(N-HYDROXYBUTYL)NITROSAMINE [3817-11-6], 1200 MG/KG IN DIET FOR 6 MONTHS BEGINNING 1 WK PRIOR TO FIRST CARCINOGEN DOSE (STUDY DURATION: 6 MONTHS), Strain/Sex: F344/FEMALE, Target Tissue: Type of Lesion: URINARY BLADDER: CARCINOMA, Dose [Carcinogen]: 150 MG IN 20% ETHANOL 2X/WK FOR 8 WK (STUDY DURATION: 6 MONTHS), Promoter: NONE): 27%, 7%, 74%, not significant | tumour outcome (control, treated, inhibition, significance) (Carcinogen: N-BUTYL-N-(N-HYDROXYBUTYL)NITROSAMINE [3817-11-6], 1200 MG/KG IN DIET FOR 6 MONTHS BEGINNING 1 WK PRIOR TO FIRST CARCINOGEN DOSE (STUDY DURATION: 6 MONTHS), Strain/Sex: F344/FEMALE, Target Tissue: Type of Lesion: URINARY BLADDER: PAPILLOMA, Dose [Carcinogen]: 150 MG IN 20% ETHANOL 2X/WK FOR 8 WK (STUDY DURATION: 6 MONTHS), Promoter: NONE): 60%, 27%, 55%, not significant
